Measurements published in PubChem BioAssay (NCI).
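Results reflect a 48-hour exposure of cells in 96-well plates to compound at five concentrations. Definition used: TGI = concentration required for complete inhibition of growth.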

Tests used:
Experiment in all cases: growth of human tumour cells (NCI), 48 h
CAKI-1 renal = system: CAKI-1 renal
PC-3 prostate = system: PC-3 prostate
RXF 393 renal = system: RXF 393 renal
OVCAR-4 ovarian = system: OVCAR-4 ovarian
HCT-116 colon = system: HCT-116 colon
SK-MEL-5 melanoma = system: SK-MEL-5 melanoma
OVCAR-8 ovarian = system: OVCAR-8 ovarian
OVCAR-3 ovarian = system: OVCAR-3 ovarian
SN12C renal = system: SN12C renal
MALME-3M melanoma = system: MALME-3M melanoma
SNB-19 CNS = system: SNB-19 CNS
TK-10 renal = system: TK-10 renal
DU-145 prostate = system: DU-145 prostate
U251 CNS = system: U251 CNS
MCF7 breast = system: MCF7 breast
SK-MEL-2 melanoma = system: SK-MEL-2 melanoma
LOX IMVI melanoma = system: LOX IMVI melanoma
NCI/ADR-RES ovarian = system: NCI/ADR-RES ovarian
HCC-2998 colon = system: HCC-2998 colon
K-562 leukemia = system: K-562 leukemia
HS 578T breast = system: HS 578T breast
CCRF-CEM leukemia = system: CCRF-CEM leukemia
SNB-75 CNS = system: SNB-75 CNS
MDA-MB-231 breast = system: MDA-MB-231 breast
SF-295 CNS = system: SF-295 CNS
UO-31 renal = system: UO-31 renal
MOLT-4 leukemia = system: MOLT-4 leukemia
BT-549 breast = system: BT-549 breast
A549 NSCLC = system: A549 NSCLC
A498 renal = system: A498 renal
NCI-H226 lung = system: NCI-H226 lung
NCI-H522 lung = system: NCI-H522 lung
M14 melanoma = system: M14 melanoma
HT29 colon = system: HT29 colon
SW-620 colon = system: SW-620 colon
SK-MEL-28 melanoma = system: SK-MEL-28 melanoma
MDA-MB-435 = system: MDA-MB-435
HOP-62 NSCLC = system: HOP-62 NSCLC
HL-60(TB) leukemia = system: HL-60(TB) leukemia
SF-268 CNS = system: SF-268 CNS
SR leukemia = system: SR leukemia
HOP-92 NSCLC = system: HOP-92 NSCLC
UACC-62 melanoma = system: UACC-62 melanoma
KM12 colon = system: KM12 colon
COLO 205 colon = system: COLO 205 colon
NCI-H23 lung = system: NCI-H23 lung
EKVX NSCLC = system: EKVX NSCLC
786-0 renal = system: 786-0 renal
OVCAR-5 ovarian = system: OVCAR-5 ovarian
NCI-H460 lung = system: NCI-H460 lung
UACC-257 melanoma = system: UACC-257 melanoma
T-47D breast = system: T-47D breast
ACHN renal = system: ACHN renal
SK-OV-3 ovarian = system: SK-OV-3 ovarian
SF-539 CNS = system: SF-539 CNS
HCT-15 colon = system: HCT-15 colon
MDA-N = system: MDA-N
IGROV1 ovarian = system: IGROV1 ovarian
RPMI-8226 leukemia = system: RPMI-8226 leukemia

Compound: C/C=C/[C@@H]1[C@H]2C(=O)[C@]3(Cl)[C@@H](/C=C/C)[C@@H]3C(=O)[C@@]12Cl
- TGI (CAKI-1 renal): > 100 µM
- TGI (PC-3 prostate): > 100 µM
- TGI (RXF 393 renal): > 100 µM
- TGI (OVCAR-4 ovarian): > 100 µM
- TGI (HCT-116 colon): > 100 µM
- TGI (SK-MEL-5 melanoma): > 100 µM
- TGI (OVCAR-8 ovarian): > 100 µM
- TGI (OVCAR-3 ovarian): > 100 µM
- TGI (SN12C renal): > 100 µM
- TGI (MALME-3M melanoma): > 100 µM
- TGI (SNB-19 CNS): > 100 µM
- TGI (TK-10 renal): > 100 µM
- TGI (DU-145 prostate): > 100 µM
- TGI (U251 CNS): > 100 µM
- TGI (MCF7 breast): > 100 µM
- TGI (SK-MEL-2 melanoma): > 100 µM
- TGI (LOX IMVI melanoma): > 100 µM
- TGI (NCI/ADR-RES ovarian): > 100 µM
- TGI (HCC-2998 colon): > 100 µM
- TGI (K-562 leukemia): > 100 µM
- TGI (HS 578T breast): > 100 µM
- TGI (CCRF-CEM leukemia): > 100 µM
- TGI (SNB-75 CNS): > 100 µM
- TGI (MDA-MB-231 breast): > 100 µM
- TGI (SF-295 CNS): > 100 µM
- TGI (UO-31 renal): > 100 µM
- TGI (MOLT-4 leukemia): > 100 µM
- TGI (BT-549 breast): > 100 µM
- TGI (A549 NSCLC): > 100 µM
- TGI (A498 renal): > 100 µM
- TGI (NCI-H226 lung): > 100 µM
- TGI (NCI-H522 lung): > 100 µM
- TGI (M14 melanoma): > 100 µM
- TGI (HT29 colon): > 100 µM
- TGI (SW-620 colon): > 100 µM
- TGI (SK-MEL-28 melanoma): > 100 µM
- TGI (MDA-MB-435): > 100 µM
- TGI (HOP-62 NSCLC): > 100 µM
- TGI (HL-60(TB) leukemia): > 100 µM
- TGI (SF-268 CNS): > 100 µM
- TGI (SR leukemia): > 100 µM
- TGI (HOP-92 NSCLC): > 100 µM
- TGI (UACC-62 melanoma): > 100 µM
- TGI (KM12 colon): > 100 µM
- TGI (COLO 205 colon): > 100 µM
- TGI (NCI-H23 lung): > 100 µM
- TGI (EKVX NSCLC): > 100 µM
- TGI (786-0 renal): > 100 µM
- TGI (OVCAR-5 ovarian): > 100 µM
- TGI (NCI-H460 lung): > 100 µM
- TGI (UACC-257 melanoma): > 100 µM
- TGI (T-47D breast): > 100 µM
- TGI (ACHN renal): > 100 µM
- TGI (SK-OV-3 ovarian): > 100 µM
- TGI (SF-539 CNS): > 100 µM
- TGI (HCT-15 colon): > 100 µM
- TGI (MDA-N): > 100 µM
- TGI (IGROV1 ovarian): > 100 µM

Compound: COc1cccc2c1-c1ccccc1[C@H](Nc1ccccc1)[C@@]2(C)O
- TGI (CAKI-1 renal): 17.5 µM
- TGI (PC-3 prostate): 19 µM
- TGI (RXF 393 renal): 11 µM
- TGI (OVCAR-4 ovarian): 25.7 µM
- TGI (HCT-116 colon): 15 µM
- TGI (SK-MEL-5 melanoma): 14.1 µM
- TGI (OVCAR-8 ovarian): 31 µM
- TGI (OVCAR-3 ovarian): 7.85 µM
- TGI (SN12C renal): 16.8 µM
- TGI (MALME-3M melanoma): 22.1 µM
- TGI (SNB-19 CNS): 19.3 µM
- TGI (TK-10 renal): 22.1 µM
- TGI (DU-145 prostate): 17.7 µM
- TGI (U251 CNS): 16.3 µM
- TGI (MCF7 breast): 17.2 µM
- TGI (SK-MEL-2 melanoma): 19.9 µM
- TGI (LOX IMVI melanoma): 28 µM
- TGI (NCI/ADR-RES ovarian): 15.2 µM
- TGI (HCC-2998 colon): 19.7 µM
- TGI (K-562 leukemia): > 100 µM
- TGI (HS 578T breast): 32 µM
- TGI (CCRF-CEM leukemia): 50.9 µM
- TGI (SNB-75 CNS): 6.85 µM
- TGI (MDA-MB-231 breast): 24.3 µM
- TGI (SF-295 CNS): 15.8 µM
- TGI (UO-31 renal): 16.9 µM
- TGI (MOLT-4 leukemia): > 100 µM
- TGI (BT-549 breast): 23.3 µM
- TGI (A549 NSCLC): 22.2 µM
- TGI (A498 renal): 22 µM
- TGI (NCI-H226 lung): 15.6 µM
- TGI (NCI-H522 lung): 8.49 µM
- TGI (M14 melanoma): 14.8 µM
- TGI (HT29 colon): 14 µM
- TGI (SW-620 colon): 30 µM
- TGI (SK-MEL-28 melanoma): 26.7 µM
- TGI (MDA-MB-435): 6.14 µM
- TGI (HOP-62 NSCLC): 19 µM
- TGI (HL-60(TB) leukemia): 26.8 µM
- TGI (SF-268 CNS): 21.1 µM
- TGI (SR leukemia): 22.9 µM
- TGI (HOP-92 NSCLC): 26 µM
- TGI (UACC-62 melanoma): 21.6 µM
- TGI (KM12 colon): 15.6 µM
- TGI (COLO 205 colon): 10.4 µM
- TGI (NCI-H23 lung): 23.2 µM
- TGI (EKVX NSCLC): 25.1 µM
- TGI (786-0 renal): 20.2 µM
- TGI (OVCAR-5 ovarian): 28.2 µM
- TGI (NCI-H460 lung): 14 µM
- TGI (UACC-257 melanoma): 19.7 µM
- TGI (T-47D breast): 30.2 µM
- TGI (ACHN renal): 21.6 µM
- TGI (SK-OV-3 ovarian): 21.3 µM
- TGI (SF-539 CNS): 11.6 µM
- TGI (HCT-15 colon): 18.9 µM
- TGI (MDA-N): 5.25 µM

Compound: COc1ccc(C2N(c3ccc(F)c([N+](=O)[O-])c3)C(=O)N3C(c4ccc(OC)cc4)N(c4ccc(F)c([N+](=O)[O-])c4)C(=O)N23)cc1 (stereo not given)
- TGI (CAKI-1 renal): > 100 µM
- TGI (PC-3 prostate): > 100 µM
- TGI (RXF 393 renal): > 100 µM
- TGI (OVCAR-4 ovarian): > 100 µM
- TGI (HCT-116 colon): > 100 µM
- TGI (SK-MEL-5 melanoma): > 100 µM
- TGI (OVCAR-8 ovarian): > 100 µM
- TGI (OVCAR-3 ovarian): > 100 µM
- TGI (SN12C renal): > 100 µM
- TGI (MALME-3M melanoma): > 100 µM
- TGI (SNB-19 CNS): > 100 µM
- TGI (TK-10 renal): > 100 µM
- TGI (DU-145 prostate): > 100 µM
- TGI (U251 CNS): > 100 µM
- TGI (MCF7 breast): > 100 µM
- TGI (SK-MEL-2 melanoma): > 100 µM
- TGI (LOX IMVI melanoma): > 100 µM
- TGI (RPMI-8226 leukemia): > 100 µM
- TGI (NCI/ADR-RES ovarian): > 100 µM
- TGI (HCC-2998 colon): > 100 µM
- TGI (HS 578T breast): > 100 µM
- TGI (CCRF-CEM leukemia): > 100 µM
- TGI (SNB-75 CNS): > 100 µM
- TGI (MDA-MB-231 breast): > 100 µM
- TGI (SF-295 CNS): > 100 µM
- TGI (UO-31 renal): > 100 µM
- TGI (BT-549 breast): > 100 µM
- TGI (A549 NSCLC): > 100 µM
- TGI (A498 renal): > 100 µM
- TGI (NCI-H522 lung): > 100 µM
- TGI (M14 melanoma): > 100 µM
- TGI (HT29 colon): > 100 µM
- TGI (SW-620 colon): > 100 µM
- TGI (SK-MEL-28 melanoma): > 100 µM
- TGI (MDA-MB-435): > 100 µM
- TGI (HOP-62 NSCLC): > 100 µM
- TGI (HL-60(TB) leukemia): > 100 µM
- TGI (SF-268 CNS): > 100 µM
- TGI (SR leukemia): > 100 µM
- TGI (HOP-92 NSCLC): > 100 µM
- TGI (UACC-62 melanoma): > 100 µM
- TGI (KM12 colon): > 100 µM
- TGI (COLO 205 colon): > 100 µM
- TGI (NCI-H23 lung): > 100 µM
- TGI (EKVX NSCLC): > 100 µM
- TGI (786-0 renal): > 100 µM
- TGI (OVCAR-5 ovarian): > 100 µM
- TGI (NCI-H460 lung): > 100 µM
- TGI (UACC-257 melanoma): > 100 µM
- TGI (T-47D breast): > 100 µM
- TGI (ACHN renal): > 100 µM
- TGI (SF-539 CNS): > 100 µM
- TGI (HCT-15 colon): > 100 µM
- TGI (MDA-N): > 100 µM
- TGI (IGROV1 ovarian): > 100 µM
